Test results published in paper PMC10799918, “Revealing the mechanistic interactions of profenofos and captan pesticides with serum protein via biophysical and computational investigations” (Scientific Reports, 2024).

Biological target: T1, bovine serum albumin (BSA) (Bos taurus, UniProt P02769)
T1 construct: gene ALB; PDB 4F5S used for docking only
Assay: intrinsic fluorescence quenching (ex […] nm, em […] nm), double-logarithmic plot
Format: binding
Conditions: 310 K, pH 7.4, 10 mM Tris-HCl, 150 mM NaCl, 2 uM BSA, 0.1% acetonitrile, no site probe; double-log

T1 sequence (P02769 25-607): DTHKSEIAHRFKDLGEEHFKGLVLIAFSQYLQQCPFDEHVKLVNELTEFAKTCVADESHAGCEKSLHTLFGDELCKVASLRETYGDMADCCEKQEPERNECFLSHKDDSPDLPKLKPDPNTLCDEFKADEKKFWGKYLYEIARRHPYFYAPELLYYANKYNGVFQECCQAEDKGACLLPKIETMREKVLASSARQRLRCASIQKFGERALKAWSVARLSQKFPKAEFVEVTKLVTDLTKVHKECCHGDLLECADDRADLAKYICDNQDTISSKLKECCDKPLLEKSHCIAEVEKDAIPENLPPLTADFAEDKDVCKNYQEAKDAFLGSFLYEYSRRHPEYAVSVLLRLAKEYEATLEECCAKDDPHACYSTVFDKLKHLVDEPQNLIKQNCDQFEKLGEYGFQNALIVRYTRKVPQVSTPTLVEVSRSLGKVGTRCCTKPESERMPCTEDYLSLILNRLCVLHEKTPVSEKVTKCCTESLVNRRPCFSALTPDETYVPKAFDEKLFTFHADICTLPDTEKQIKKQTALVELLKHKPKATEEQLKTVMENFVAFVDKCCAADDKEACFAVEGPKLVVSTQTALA

SMILES | Ka | Ka (M^-1)
CCCSP(=O)(OCC)Oc1ccc(Br)cc1Cl (centres unmarked) [compound 1, 4-bromo-2-chloro-1-[ethoxy(propylsulfanyl)phosphoryl]oxybenzene] | 3897 ± 1.49 M⁻¹ | –
O=C1C2CC=CCC2C(=O)N1SC(Cl)(Cl)Cl (centres unmarked) [compound 2, 2-(trichloromethylsulfanyl)-3a,4,7,7a-tetrahydroisoindole-1,3-dione] | – | 14,581 ± 1.40 M^-1
